A word on the IC50: it is the concentration at which inhibition is half-maximal. By Kd is commonly meant the concentration at which binding is half-saturated.

The values that follow come from ChEMBL document CHEMBL5137057, “Small Carbohydrate Derivatives as Potent Antibiofilm Agents” (J Med Chem, 2022).

Assay [1] deals with Escherichia coli. Nature of the assay: Antibiofilm activity against Escherichia coli UTI89 at 2.5 ug/ml incubated for 72 hrs by crystal violet staining based assay relative to control. It is filed as functional. The following applies: dose 2.5 µg/ml.
The next assay addresses Sortase A (Staphylococcus aureus, UniProt Q9S446). Nature of the assay: Inhibition of Staphylococcus aureus ATCC 6538p Sortase A protease expressed in Escherichia coli BL21 expression system using Dabcyl-QALPETGEE-Edans as substrate incubated for 1 hr by FRET assay.
The test system of assay [2] is Streptococcus mutans. The assay can be described thus: Prevention of Streptococcus mutans CLSM 001 adherence to sucrose-dependent glass surface at 1 to 2 mg/ml relative to control. It is filed as functional. Particulars: dose 1-2 mg/ml.
In assay [3] the target is T1, PA-I galactophilic lectin (Pseudomonas aeruginosa (strain ATCC 15692 / PAO1 / 1C / PRS 101 / LMG12228), UniProt Q05097).
T1 sequence (Q05097 whole entry): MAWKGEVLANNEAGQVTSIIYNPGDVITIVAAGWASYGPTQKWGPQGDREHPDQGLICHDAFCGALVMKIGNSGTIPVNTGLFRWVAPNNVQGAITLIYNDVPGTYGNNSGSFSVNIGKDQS
The assay can be described thus: Inhibition of FITC-labelled Pseudomonas aeruginosa LecA incubated for 1 hr by fluorescence based analysis.

Assay [4] deals with Streptococcus mutans. Nature of the assay: Prevention of Streptococcus mutans adherence at 0.1 mg/ml relative to control. Format: functional.
The nature of assay [5]: Binding affinity to Lactobacillus reuteri Glucosyltransferase assessed as dissociation constant by SPR analysis. Details: species or system Limosilactobacillus reuteri. For orientation: SPR reads the build-up and loss of mass on a sensor chip optically.
The subject of the next assay is Staphylococcus aureus. Nature of the assay: Antibiofilm activity against Staphylococcus aureus USA300 assessed as inhibition of biofilm formation at 256 ug/ml measured after 24 hrs by crystal violet staining based assay relative to control. Particulars: dose 256 µg/ml. It is filed as functional. Details: scale not given: the % may be the effect or the level left.

The subject of assay [6] is Escherichia coli. The assay can be described thus: Antibiofilm activity against Escherichia coli UTI89 at 5 ug/ml incubated for 72 hrs by crystal violet staining based assay relative to control. It is filed as functional. The following applies: dose 5 µg/ml.
The next assay concerns Pseudomonas aeruginosa. Nature of the assay: Antibiofilm activity against Pseudomonas aeruginosa ATCC 27853 at 0.5 mg/ml measured after 24 hrs by crystal violet staining based assay relative to control. It is filed as functional.
Assay [7] deals with Type 1 fimbrin D-mannose specific adhesin (Escherichia coli K-12) (UniProt P08191). Nature of the assay: Inhibition of Escherichia coli UTI89 FimH by hemagglutination assay.
Type 1 fimbrin D-mannose specific adhesin (Escherichia coli K-12), sequence (P08191 whole entry): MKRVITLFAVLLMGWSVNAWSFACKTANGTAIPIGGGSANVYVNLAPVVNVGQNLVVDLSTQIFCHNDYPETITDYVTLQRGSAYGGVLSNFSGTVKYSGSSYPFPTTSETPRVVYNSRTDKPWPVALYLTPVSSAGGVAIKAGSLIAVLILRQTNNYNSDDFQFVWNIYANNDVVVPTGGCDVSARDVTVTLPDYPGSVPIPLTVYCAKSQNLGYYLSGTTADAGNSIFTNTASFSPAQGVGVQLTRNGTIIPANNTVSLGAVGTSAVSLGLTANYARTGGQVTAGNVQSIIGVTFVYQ
For assay [8], the system named is Escherichia coli. The assay can be described thus: Antibiofilm activity against Escherichia coli UTI89. Format: functional, organism-based.

Sortase A, sequence (Q9S446 whole entry): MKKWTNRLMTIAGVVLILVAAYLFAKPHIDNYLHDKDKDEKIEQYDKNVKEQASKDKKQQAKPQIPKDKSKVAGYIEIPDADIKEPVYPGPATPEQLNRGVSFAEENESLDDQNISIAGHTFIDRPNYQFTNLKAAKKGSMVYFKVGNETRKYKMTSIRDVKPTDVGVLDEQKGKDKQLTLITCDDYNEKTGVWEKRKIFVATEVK

`CC(=O)O[C@@H]1[C@@H](O)[C@@H](O)[C@H](O[C@@H]2[C@@H](O)[C@H](OCCc3ccc(O)c(O)c3)O[C@H](CO)[C@H]2OC(=O)/C=C/c2ccc(O)c(O)c2)O[C@H]1C`: in the assay on Escherichia coli [1], the Activity was determined as 77%.

The compound `CC[C@H](CCC(C)[C@H]1CC[C@H]2[C@@H]3CCC4C[C@@H](O[C@@H]5O[C@H](CO)[C@@H](O)[C@H](O)[C@H]5O)CC[C@]4(C)[C@H]3CC[C@]12C)C(C)C` (stereo partly specified) had an IC50 against Sortase A of 31.6 µM. In turn, `O=c1c(O[C@@H]2OC[C@H](O)[C@H](O)[C@H]2O)c(-c2ccc(O)c(O)c2)oc2cc(O)cc(O)c12` [GUAJAVERIN] showed an Activity with Streptococcus mutans [2] of 83.7%. Compound `OC[C@H]1O[C@@H](OCc2cn([C@H]3[C@H](O)[C@@H](O)[C@H](c4cn([C@H]5[C@H](O)[C@@H](O)[C@H](n6cc([C@@H]7O[C@H](CO)[C@@H](n8cc(CO[C@@H]9O[C@H](CO)[C@H](O)[C@H](O)[C@H]9O)nn8)[C@H](O)[C@H]7O)nn6)O[C@@H]5CO)nn4)O[C@@H]3CO)nn2)[C@H](O)[C@@H](O)[C@H]1O` registered an IC50 in assay [3] of 28 nM. In the assay on Streptococcus mutans [4], `COc1cc(-c2[o+]c3cc(O[C@@H]4O[C@H](CO)[C@@H](O)[C@H](O)[C@H]4O)cc(O)c3cc2O[C@@H]2O[C@H](CO)[C@@H](O)[C@H](O)[C@H]2O)cc(OC)c1O` gave an Activity of 60%. On to `C[C@H]1[C@H](Oc2ccc(/C=N/NC(=O)COc3ccccc3Cl)cc2)O[C@H](CO)[C@@H](O)[C@@H]1O`, for which the Kd in [5] stood at 400 µM. In the case of `O=c1cc(-c2ccc(O)cc2)oc2cc(O)c([C@@H]3O[C@H](CO)[C@@H](O)[C@H](O)[C@H]3O)c(O)c12` [ISOVITEXIN], the Activity with Staphylococcus aureus is reported as 61%. Take `C[C@@H]1O[C@@H](O[C@@H]2[C@@H](O)[C@H](OCCc3ccc(O)c(O)c3)O[C@H](CO)[C@H]2OC(=O)/C=C/c2ccc(O)c(O)c2)[C@H](O)[C@H](O)[C@H]1O` [ACETOSIDE]: in the assay on Escherichia coli [6], the Activity is 60%.

For the compound `CC(=O)O[C@@H]1[C@H](O[C@H]2CC[C@H](C)[C@@]3(C)C[C@@H](/C(C)=C/CC=C(C)C)CC[C@H]23)OC[C@@H](OC(C)=O)[C@H]1OC(C)=O`, in the assay with Pseudomonas aeruginosa, the Activity was found to be 60%.

In assay [7], `Cc1cc(-c2ccc3ccn(CC(=O)Nc4cccnc4)c(=O)c3c2)ccc1O[C@H]1O[C@H](CO)[C@@H](O)[C@H](O)[C@@H]1O` registered an EC>90 of 1 nM. In the assay on Escherichia coli [8], this compound displayed an IC50 of 18 nM.
